Data as given in patent US20090069359A1 (priority 2006, published 2009).

Legend:
[1] = test system: Peyronie's disease; set-up: species or system human; conditions: in vivo
[2] = test system: erectile dysfunction; set-up: species or system human; conditions: in vivo
[3] = test system: facial wrinkles; conditions: human, in vivo
[4] = test system: hair loss and baldness; set-up: species or system human; conditions: in vivo

## CC(C)NCC(O)COc1cccc2ccccc12 (stereo not drawn) [propranolol]
[1]
  penile curvature outcome: gradually attained a straightened penis
  time to straightened penis: ≤ 90 days

## CC1CCC(C(C)C)C(O)C1 (stereo not drawn) [menthol]
[2]
  erections: improved erections were obtained

## botulinum toxina [Botox]
[3]
  duration of wrinkle reducing effect: lasts up to one week
  period over which wrinkle reducing effect occurs: 72 h
  wrinkle treatment outcome: used successfully

## CC1=C(/C=C/C(C)=C/C=C/C(C)=C/C(=O)O)C(C)(C)CCC1 [Retin A, tretinoin]
[3]
  duration of wrinkle reducing effect: lasts up to one week
  period over which wrinkle reducing effect occurs: 72 h
  wrinkle treatment outcome: used successfully

## CC12CCC(CC1)C(C)(C)O2 [eucalyptol]
[2]
  erections: improved erections were obtained

## Nc1cc(N2CCCCC2)nc(N)[n+]1[O-] [minoxidil]
[4]
  time of treatment after which new hair growth began: 30 days

## C[C@H]1C[C@H]2[C@@H]3CCC4=CC(=O)C=C[C@]4(C)[C@@]3(F)[C@@H](O)C[C@]2(C)[C@@]1(O)C(=O)CO [betamethasone]
[4]
  time of treatment after which new hair growth began: 30 days
